Patent US20190022198A1, “Individualized Immunomodulation Therapy for Neurodegenerative Disorders, CNS Injury and Age-Related Dementia” (Yeda Research and Development Co. Ltd., priority 2012, published 2019)

Key:
[1] = tested on: CP cells; assay: Transepithelial migration assay of CD115+ monocytes across CP cells towards CCL2; format: cell-based, mouse; details: TNF-α in combination with IFN-γ (data not shown)
Procedure: For transepithelial migration assay, CP cells were isolated as above and plated on 5-μm pore size, 6.5 mm diameter polycarbonate filters in 24-well Transwell chambers (Costar, Corning) and grown for 7 days. The medium of the upper chamber was then replaced with 100 μl of freshly isolated CD115^+ monocytes (1.5×10^6 cells/ml in RPMI 1640 supplemented with 0.5% BSA) and the inserts were transferred to new wells containing RPMI 1640 supplemented with 0.5% BSA and 100 ng/ml CCL2 (PeproTech). The Transwells were then incubated at 37° C., 5% CO2. After 24 h the migrating cells at the lower chamber were removed using cell scraper and CD11b^+ cells were quantified by flow cytometry.
CD115^+ monocytes were isolated as previously reported (Shechter et al., 2009). Briefly, BM cells were harvested from the femur and tibiae of naïve mice, and enriched for mononuclear cells on a Ficoll density gradient. The CD115^+ BM monocyte population was isolated by MACS enrichment using biotinylated anti-CD115 antibodies and streptavidin-coupled magnetic beads (Miltenyi Biotec) according to the manufacturer's protocols. Monocyte purity was checked by flow cytometry based on CD11b reactivity and was 90%.

[2] = tested on: cultured CP cells; assay: Immunocytochemistry of cultured CP cells treated with cytokines; format: cell-based, mouse; details: cultured cells following TNF-α treatment (data not shown)
Procedure: For whole mount staining of the choroid plexus, isolated tissues were fixed with 2.5% paraformaldehyde (PFA) for several hours, and subsequently transferred to PBS containing 0.05% sodium azide. Prior to staining, the dissected tissues were washed and blocked (20% horse serum, 0.3% Triton X-100, and PBS) for 1 h at room temperature with shaking. Whole mount staining with primary (in PBS containing 2% horse serum and 0.3% Triton X-100) and secondary antibodies (in PBS), was performed for 1h at room temperature, with shaking. Each step was followed by three washes in PBS. The tissues were mounted onto slides, using Immu-mount (9990402, from Thermo), and sealed with cover-slips. For staining of sectioned brains, two different tissue preparation protocols (paraffin embedded and microtomed frozen sections) were applied, as previously described (Ziv Y et al (2006b)). For immunocytochemistry, CP cells were isolated as described above and were grown on PLL coated cover slips for 7 days, replacing the medium every 3 days. Cytokines were added for the last 3 days of culture. Following 7 days of culture, the wells were washed with PBS and the cells were fixed either with 2.5% paraformaldehyde for 30 min or methanol-acetone (1:1) for 10 min at −20° C., following by 2 washing steps with PBS. For CCL11 staining, cells were treated with Brefeldin-A 2 hours prior to fixation in order to arrest protein secretion. The cover slips of the cultured CP cells were incubated with the indicated antibodies and mounted with Glycerol Vinyl Alcohol (GVA) mounting solution (Invitrogen). The following primary antibodies were used: rat anti-CD3 (Abcam); rat anti-ICAM-1 (1:100; Abcam), chicken anti-vimentin (1:500, Millipore), rabbit anti-Iba1 (1:300; Wako), goat anti-IL-10 (1:20; R&D), mouse anti-MHC-II (Abcam); mouse anti-Arginase-1 (BD Biosciences); mouse anti-Cytokeratin (Covance); rat anti-CCL11 (R&D Systems); rabbit anti-ZO-1 (Invitrogen); and rabbit anti-Claudin-1 (Invitrogen). Secondary antibodies included: Cy2/Cy3-conjugated donkey anti-rat, mouse or rabbit antibody and Cy3 conjugated donkey anti-mouse, goat, rat, chicken or rabbit (1:200; all from Jackson Immuno Research). The slides were exposed to Hoechst stain (1:2000; Invitrogen) for 1 min. Two negative controls were routinely used in immunostaining procedures, staining with isotype control antibody followed by secondary antibody, and staining with secondary antibody alone. For morphological quantification, average cross-sectional area of epithelial cells was measured following Nissl staining. Cell borders (20-25 cells per picture) were marked and the area was quantified using Image-Pro Plus software in a blinded fashion.

[3] = tested on: CP epithelial cells; assay: Primary culture of choroid plexus cells treated with cytokines, mRNA by real-time qPCR; format: cell-based, mouse; details: TNF-α 100 ng/ml
Procedure: Mice were perfused from the left ventricle of the heart with PBS, and their CPs were removed under a dissecting microscope (Stemi DV4; Zeiss) in PBS into tubes containing 0.25% trypsin, and kept on ice. The tubes were shaken for 20 minutes at 37° C. and the tissue was dissociated by pipetting. The cell suspension was washed in culture medium for epithelial cells (DMEM/HAM's F12 (Invitrogen Corp)) supplemented with 10% FCS (Sigma-Aldrich), 1 mM 1-glutamine, 1 mM sodium pyruvate, 100 U/ml penicillin, […] streptomycin, 5 μg/ml Insulin, 20 μM Ara-C, 5 ng/ml sodium selenite, 10 ng/ml EGF, and cultured (˜250,000 cells/well) at 37° C., 5% CO2 in 24-well plates (Corning Incorporated) coated with poly-L-lysine (PLL; Sigma-Aldrich). After 24 hours, the medium was changed, and the cells were either left untreated, or treated with the indicated cytokines (all purchased from PeproTech): IFN-γ, IL-4, IL-10, IL-17A, GM-CSF, IL-6, IL-1β or TNF-α or their combinations for 24 h. Cell viability was quantified by Trypan blue staining after detachment of the cells with 0.25% trypsin for 10 minutes at 37° C. Neutralizing antibodies to TNF-R1 or TNF-R2 ([…], BioLegend) were added 1 h prior to the addition of TNF-α (100 ng/ml). RNA was isolated using the ZR RNA microprep kit (Zymo Research) according to the manufacturer's protocol.
Total RNA of the hippocampus was extracted with TRI reagent (MRC, Cincinnati, Ohio) and was purified from the lysates and spinal cord using the RNeasy kit (Qiagen, Hilden, Germany). Total RNA of the choroid plexus was extracted using the RNA MicroPrep kit (Zymo Research). mRNA (1 μg) was converted to cDNA using High Capacity cDNA Reverse Transcription Kit (Applied Biosystems). The expression of specific mRNAs was assayed using fluorescence based real-time quantitative PCR (qPCR). qPCR reactions were performed using Power SYBR Green PCR Master Mix (Applied Biosystems). Quantification reactions were performed in triplicates for each sample using the standard curve method. Glyceraldehyde 3-phosphate dehydrogenase (GAPDH), Peptidylprolyl isomerase A (PPIA), and hypoxanthine guanine phosphoribosyltransferase (HPRT) were chosen as reference genes according to their stability in the target tissue. The amplification cycles were 95° C. for 5 sec, 60° C. for 20 sec, and 72° C. for 15 sec. At the end of the assay, a melting curve was constructed to evaluate the specificity of the reaction. For some genes, the cDNA was pre-amplified in 14 PCR cycles with non-random PCR primers, thus increasing the sensitivity of the subsequent real-time PCR analysis (PreAmp Master Mix Kit, Applied Biosystems). For these genes, expression was determined using TaqMan Real-Time PCR, according to manufacturer's instructions (Applied Biosystems). All quantitative real-time PCR reactions were performed and analyzed using the 7500 Real-Time PCR System (Applied Biosystems). The following TaqMan probes were used: Mm02342430_g1 (ppia), Mm00446968_m1 (hprt), Mm00445260_m1 (il-4), Mm01168134_m1 (ifn-γ), Mm00441238_m1 (ccl11), Mm00475988_m1 (arg-1). In addition, the following primers were used: […]

[4] = tested on: 5XFAD mice; assay: Radial arm water maze (RAWM) in GA vaccinated 5XFAD mice; format: in vivo, mouse
Procedure: Mice were tested for two days on 6 radial arm water maze paradigm in a water pool, as described in Alamed et al., Nat Protoc. 2006, 1(4), 1671-1679. Briefly, mice received an injection of GA as indicated in the examples. On the first day, 15 trials were performed, in trials 1, 3, 5, 7, 9 and 11 the platform was visible, and in all other trials the platform was hidden. On the second day, 12 trials were performed, all of them with hidden platform. The time required to reach the platform and the number of errors (incorrect arm entries) in 1-min time period was recorded.
To test the effect of different regimens of administration of Cop 1, 5XFAD females were vaccinated subcutaneously (S.C.) with 100 μg Cop 1 dissolved in 200 μl PBS. Three different regimens were compared: 5XFAD+2GA were vaccinated twice, with the second injection given three days after the first; 5XFAD+5GA were vaccinated five times, twice in the first week and once a week for another three weeks, and 5XFAD+daily GA were vaccinated every day for 28 days (19B). One day after the last GA injection, mice were sacrificed and their spleens were analyzed by FACS and compared to WT and untreated 5XFAD littermates. […] Radial arm water maze (RAWM) was performed to 4 groups of 8 months old mice to test mental cognitive performance. […]

[5] = daily administration, subjects receiving daily injections; cited from earlier work
[6] = tested on: 5XFAD mice; assay: Cop 1 (GA) vaccination regimens in 5XFAD mice: FoxP3+ T cells in spleen (FACS) and CP (staining); format: in vivo, mouse
Procedure: For intracellular staining of IFN-γ or IL-17, the cells were incubated with PMA (10 ng/ml; Sigma-Aldrich) and ionomycin (250 ng/ml; Sigma-Aldrich) for 6 h, and Brefeldin-A ([…]; Sigma-Aldrich) was added for the last 4 h. Intracellular labeling of cytokines was done with BD Cytofix/Cytoperm Plus Fixation/Permeabilization kit (cat. no. 555028) according to the manufacturer's protocol. Intracellular staining of FoxP3 was performed using the FoxP3 staining kit (eBioscience) according to the manufacturer's protocol. The following fluorochrome-labeled mAbs were used according to the manufacturers' protocols: FITC-conjugated anti-TCRβ, FITC-conjugated anti-CD44, PE-conjugated anti-CD4, PE-conjugated anti-IL-17A, APC-conjugated anti-IFN-γ, FITC-conjugated anti-CD45.2, Alexa-700-conjugated anti-CD45.2, Percp-Cy5.5-conjugated anti-TCRβ (all from BioLegend), and APC-conjugated anti-FoxP3 (eBioscience). Flow cytometry analysis was performed on each sample using a BD Biosciences LSRII flow cytometer, and the acquired data were analyzed using FlowJo software (Tree star). In each experiment, relevant negative control groups and single stained samples for each tissue were used to determine the populations of interest and to exclude others.
For whole mount staining of the choroid plexus, isolated tissues were fixed with 2.5% paraformaldehyde (PFA) for several hours, and subsequently transferred to PBS containing 0.05% sodium azide. Prior to staining, the dissected tissues were washed and blocked (20% horse serum, 0.3% Triton X-100, and PBS) for 1 h at room temperature with shaking. Whole mount staining with primary (in PBS containing 2% horse serum and 0.3% Triton X-100) and secondary antibodies (in PBS), was performed for 1h at room temperature, with shaking. Each step was followed by three washes in PBS. […] For morphological quantification, average cross-sectional area of epithelial cells was measured following Nissl staining. Cell borders (20-25 cells per picture) were marked and the area was quantified using Image-Pro Plus software in a blinded fashion. […]

Substance | monocyte trafficking through the CP towards CCL2 [1] | IFN-γR immunostaining [2] | expression of IFN-γ-receptor (IFN-γR) mRNA ([3]; CP epithelial cells, 24 h, IL-1β 100 ng/ml, IL-6 10 ng/ml) | MADCAM-1 expression ([3]; cultured CP cells, 24 hours, IFN-γ independent) | RAWM performance (mental cognitive performance) ([4]; daily administration of GA for 28 days) | RAWM performance (mental cognitive performance) ([4]; weekly GA: twice in the first week and once a week for another 3 weeks, compared to unvaccinated 5XFAD) | level of Treg cells in the blood [5] | fold change of FoxP3+ T cells in spleen ([6]; 2GA: vaccinated twice, second injection three days after the first, 100 μg S.C., compared to untreated 5XFAD) | incidence of FoxP3+CD3+ T cells in the CP ([6]; 5XFAD+5GA, compared to untreated 5XFAD littermates) | FoxP3+ T cells in the spleens ([6]; daily GA: every day for 28 days, 100 μg S.C.)
TNF-α | stimulated the CP to mediate monocyte trafficking towards CCL2 | elevation of IFN-γR | elevated the expression of IFN-γ-receptor | upregulated |  |  |  |  |  | 
Glatiramer Acetate [GA] |  |  |  |  | performed as badly as the unvaccinated 5XFAD mice | significantly improved | raises the level of Treg cells in the blood | significant decrease in the fold change of FoxP3^+ T cells | decreased | promoted the enrichment of FoxP3^+ T cells
